Source: BigSolDB 2.1

O=c1ccc(-c2ccccc2)n[nH]1
solubility (mole fraction) (in ethanol, 278.15 K): 0.00242 | solubility (mole fraction) (in ethanol, 283.15 K): 0.00289 | solubility (mole fraction) (in ethanol, 288.15 K): 0.00342 | solubility (mole fraction) (in ethanol, 293.15 K): 0.00402 | solubility (mole fraction) (in ethanol, 298.15 K): 0.00466 | solubility (mole fraction) (in ethanol, 303.15 K): 0.00547 | solubility (mole fraction) (in ethanol, 308.15 K): 0.00637 | solubility (mole fraction) (in ethanol, 313.15 K): 0.00736 | solubility (mole fraction) (in ethanol, 318.15 K): 0.00846 | solubility (mole fraction) (in ethylene glycol, 278.15 K): 0.00304 | solubility (mole fraction) (in ethylene glycol, 283.15 K): 0.00369 | solubility (mole fraction) (in ethylene glycol, 288.15 K): 0.00445 | solubility (mole fraction) (in ethylene glycol, 293.15 K): 0.00536 | solubility (mole fraction) (in ethylene glycol, 298.15 K): 0.00646 | solubility (mole fraction) (in ethylene glycol, 303.15 K): 0.0076 | solubility (mole fraction) (in ethylene glycol, 308.15 K): 0.00905 | solubility (mole fraction) (in ethylene glycol, 313.15 K): 0.0106 | solubility (mole fraction) (in ethylene glycol, 318.15 K): 0.0124 | solubility (mole fraction) (in isopropanol, 278.15 K): 0.00411 | solubility (mole fraction) (in isopropanol, 283.15 K): 0.00489 | solubility (mole fraction) (in isopropanol, 288.15 K): 0.00579 | solubility (mole fraction) (in isopropanol, 293.15 K): 0.00684 | solubility (mole fraction) (in isopropanol, 298.15 K): 0.00795 | solubility (mole fraction) (in isopropanol, 303.15 K): 0.0094 | solubility (mole fraction) (in isopropanol, 308.15 K): 0.0109 | solubility (mole fraction) (in isopropanol, 313.15 K): 0.0126 | solubility (mole fraction) (in isopropanol, 318.15 K): 0.0142 | solubility (mole fraction) (in methanol, 278.15 K): 0.00124 | solubility (mole fraction) (in methanol, 283.15 K): 0.00153 | solubility (mole fraction) (in methanol, 288.15 K): 0.00183 | solubility (mole fraction) (in methanol, 293.15 K): 0.0022 | solubility (mole fraction) (in methanol, 298.15 K): 0.00265 | solubility (mole fraction) (in methanol, 303.15 K): 0.00309 | solubility (mole fraction) (in methanol, 308.15 K): 0.00365 | solubility (mole fraction) (in methanol, 313.15 K): 0.00432 | solubility (mole fraction) (in methanol, 318.15 K): 0.00502 | solubility (mole fraction) (in water, 278.15 K): 2.53e-06 | solubility (mole fraction) (in water, 283.15 K): 3.14e-06 | solubility (mole fraction) (in water, 288.15 K): 3.86e-06 | solubility (mole fraction) (in water, 293.15 K): 4.72e-06 | solubility (mole fraction) (in water, 298.15 K): 5.84e-06 | solubility (mole fraction) (in water, 303.15 K): 7.08e-06 | solubility (mole fraction) (in water, 308.15 K): 8.51e-06 | solubility (mole fraction) (in water, 313.15 K): 1.02e-05 | solubility (mole fraction) (in water, 318.15 K): 1.22e-05
